“Also recorded” adds a separate entry of the source.
Assays:
T-cell = assay: Effect on T-cell proliferation (Con-A stimulated spleen cells, MTT); type: cell-based; settings: for inhibition of T-cell proliferation (in words): 0.1 μM-100 μM tested; for IC50: T-cell, Con-A stimulated spleen cells, 72 hrs, MTT
Experimental: Compounds provided in present invention were evaluated for their effect on T-cell proliferation. The protocol used for this bioassay is as follows: A single spleen cell suspension was prepared under sterile conditions and suspended in complete medium RPMI 1640 containing 10% Fetal calf serum (FCS). Spleenocytes were seeded into 4-5 wells of a 96-well flat bottom microtitre plate (Nunc) at (2×10^6 cells/ml). Thereafter, Concanavalin (Con-A) in the final concentration of 2.5 μg/well was added to stimulate T-cell, or LPS in the final concentration of 1 μg/ml was added to stimulate B-cell in the respective wells. Variable concentrations of compounds of the present invention (0.1 μM-100 μM) were added. Thereafter, the plates were incubated at 37° C. in 95% humidity at 5% CO2 in a CO2 incubator for 72 hrs. After 72 hours, 50 μl of MTT solution (5 mg/ml) was added to each well and the plates were incubated for 4 h. Thereafter, plates were centrifuged (400×g, 5 min.) and the untransformed MTT was removed. 200 μl of DMSO (192 μl with 8 μl 1N HCl) was added to each well, and the absorbance was determined in an ELISA reader at 570 nm after 15 min (Life Sci. 2007, 80, 1525-1538).

IL-6 [1] = assay: IL-6 in cell supernatant of macrophages, ex vivo LPS-induced model; parameters: species or system Balb/c mice
Description: (§1) Macrophages are the main source of cytokines in inflammation. Lipopolysaccharides LPS may stimulate macrophages to produce large quantities of proinflammatory cytokines that promote inflammation. In this study, we investigated the effect of compounds 1-3 on the expression and secretion of cytokines (TNF-α/IL-6) in vivo in cell supernatant and serum. For this study, male Balb/c mice (5-6 weeks of age) were maintained under pathogen-free conditions in an animal housing unit in a temperature-controlled (23±2° C.) and light-controlled (12 h light/dark cycle) room. Animals were provided standard rodent chow and water ad libitum. Female Balb/C mice (8-10 weeks) were obtained from animal house, 3 or 4 per cage with a 12 h light/dark cycle, provided standard water ad libitum, and acclimated to their environment at least a week before the start of experiments. One hour prior to the start of each experiment, feed and water were removed from the cages. Mice were treated with 10 mg/kg and 100 mg/kg of compounds 1-3 orally over a period of 5 days. LPS 10 μg/ml was injected and blood as well macrophages were collected. The dose was selected based on in vitro result.
(§2) Ex vivo determination of TNF-α, IL-6 & IL-1β in cell supernatant: Blood for serum cytokines production was collected from each treated and untreated animals before the collection of macrophages from peritoneal cavity. Cells were seeded in 96-well plates at 5×10^5 cells mL^−1. Cells were then stimulated with 1 μg mL^−1 LPS for 4 hrs. The cell supernatant was stored at −80° C. The production of TNF-α, IL-6, IL-1β and NO in macrophages cell supernatants of LPS-challenged mice were measured by commercial ELISA kits (B. D. Pharmingenin; R&D systems, Inc., Minneapolis, Minn., USA) and cytokine concentration was determined (J. Am. College Nutr. 2004, 23, 71-78).

TNF-α [2] = assay: TNF-α in serum, in-vivo LPS-induced model; parameters: species or system Balb/c mice; settings: for TNF-α in serum: in-vivo LPS-induced model; for activity against TNF-α in in-vivo LPS model compared with bergenin (1): Table 3, serum
Description: as §1
(§3) Measurement of in vivo serum levels of TNF-α and IL-6: The mice were divided into 4 groups: no treatment group, injected with phosphate buffered saline (PBS); LPS only; LPS+Dexamethasone (0.05 μg/ml); or LPS+compound 1 at 10 and 100 μM doses (n=6 for each group). Groups were pretreated orally with 200 μl of PBS, dexamethasone or compounds 1, 2, 3 for 45 min. Lipopolysaccharide (100 nM) was then administered (200 μL) i.p for treatment groups, and RPMI was administered i.p for the negative control group.
(§4) Ex vivo TNF-α and IL-6 determination by ELISA: Blood was allowed to clot overnight at 4° C. Serum was analyzed for IL-6, TNF-α, and IL-1β by ELISA. IL-6 analysis was performed using purified and biotin-conjugated rat anti-mouse IL-6 antibodies from PharMingen (San Diego, Calif.) as described previously. Streptavidin—peroxidase (Sigma) and 3,3′,5,5′-tetramethylbenzidine (TMB, Fluka, Ronkonkoma, N.Y.) were used for detection. Absorbance was read at 450 nm using a Vmax™ Kinetic Microplate Reader (Molecular Devices, Menlo Park, Calif.). For TNF-α analysis the OptEIA Set: Mouse TNF-α (Mono/Poly) kit was employed (PharMingen) (J. Immunol. Methods 1983, 65, 55-63).

IL-6 [3] = assay: IL-6 production in Con A/LPS stimulated splenocytes (ELISA); type: cell-based; settings: for IC50: Splenocyte, splenocytes, Con A or LPS, 72 h, ELISA; for inhibition of IL-6 production (in words): at low micromolar to nanomolar concentrations
Experimental: (§5) Splenocytes were seeded into three to four wells of a 96-well flat-bottom microtiter plate (Nunc) at 2×10^6 cells/ml. Cells were incubated with different concentrations of compounds (0.1 μM-100 μM) along with Con A (2.5 μg/well) or LPS (1 μg/ml) for 72 h at 37° C. with 5% CO2 in CO2 incubator. The culture supernatants were harvested and the measurement of cytokines (TNF-α and IL-6) in the culture supernatants was carried out using commercial kits as per manufacturer's instructions by using ELISA kits (R&D, USA) (Life Sci. 2007, 80, 1525-1538; J. Immunol. Methods 1983, 65, 55-63).

TNF-α [4] = assay: TNF-α production in Con A/LPS stimulated splenocytes (ELISA); type: cell-based; settings: for IC50: Splenocyte, splenocytes, Con A or LPS, 72 h, ELISA; for inhibition of TNF-α production (in words): at low micromolar to nanomolar concentrations
Experimental: as §5

IL-6 [5] = assay: IL-6 in serum, in-vivo LPS-induced model; parameters: species or system Balb/c mice
Description: as §1, §3, §4

TNF-α [6] = assay: TNF-α in cell supernatant of macrophages, ex vivo LPS-induced model; parameters: species or system Balb/c mice
Description: as §1, §2

nitric oxide (NO) = assay: Nitric oxide (NO) in serum, in-vivo LPS-induced model (Griess assay); parameters: species or system Balb/c mice
Description: as §1, §3
NO determination by Griess assay: NO production was indirectly assessed by measuring the nitrite level in the cultured media and serum determined by a colorimetric method based on the griess reaction. The cells were incubated with cinnamic aldehyde, cinnamic alcohol, cinnamic acid, coumarin (0, 6.25, 12.5, 25, and 50 μM) in presence of LPS (100 ng/mL) at 37° C. for 24 h. Then, cells were dispensed into 96-well plates, and […] of each supernatant was mixed with the same volume of griess reagent (1% sulfanilamide, 0.1% naphthyl ethylenediamine dihydrochloride and 5% phosphoric acid) and incubated at room temperature for 10 min., the absorbance was measured at 540 nm with a Micro-Reader (Molecular Devices, Orleans Drive, Sunnyvale, Calif.). Serum samples were diluted four times with distilled water and deproteinized by adding 1/20 volume of zinc sulphate (300 g/L) to final concentration of 15 g/L. After centrifugation at 10,000×g for 5 min at room temperature, 100 μL supernatant was applied to a microtitre plate well, followed by 100 μL of Griess reagent. After 10 min of color development at room temperature, the absorbance was measured at 540 nm with a Micro-Reader. By using sodium nitrite to generatea standard curve, the concentration of nitrite was measured by absorbance at 540 nm (J. Ethnopharmacology, 2011, 135, 545-552).

IL-4 = IL-4 production in stimulated splenocytes; type: cell-based; settings: at low micromolar to nanomolar concentrations
IL-1β = IL-1β production in stimulated splenocytes; type: cell-based; settings: at low micromolar to nanomolar concentrations

COc1c(O)cc2c(c1O)[C@@H]1O[C@H](CO)[C@@H](O)[C@H](O)[C@H]1OC2=O [Compound 1, Bergenin, reference compound]
inhibition of T-cell proliferation (in words) (T-cell; listed as Bergenin (1)): showed inhibition; also recorded: most potent
IC50 (T-cell): 100 nM
IL-6 in cell supernatant of macrophages (IL-6 [1]; Dose 10 (μM as printed)): 24.6 ± 6.9 ng/mL
IL-6 in cell supernatant of macrophages (IL-6 [1]; Dose 100 (μM as printed)): 53.5 ± 7.5 ng/mL
TNF-α in serum (TNF-α [2]; Dose 10 (μM as printed)): 667 ± 208 pg/mL
TNF-α in serum (TNF-α [2]; Dose 100 (μM as printed)): 509 ± 185 pg/mL
IC50 (IL-6 [3]): < 100 nM
inhibition of IL-6 production (in words) (IL-6 [3]; listed as Bergenin (1)): showed inhibition; also recorded: most potent
IC50 (TNF-α [4]): 630 nM
inhibition of TNF-α production (in words) (TNF-α [4]; listed as Bergenin (1)): showed inhibition; also recorded: most potent
IL-6 in serum (IL-6 [5]; Dose 10 (μM as printed)): 282 ± 98 ng/mL
IL-6 in serum (IL-6 [5]; Dose 100 (μM as printed)): 55 ± 12 ng/mL
TNF-α in cell supernatant of macrophages (TNF-α [6]; Dose 10 (μM as printed)): 89 ± 6.1 pg/mL
TNF-α in cell supernatant of macrophages (TNF-α [6]; Dose 100 (μM as printed)): 78 ± 4.9 pg/mL
NO in serum (nitric oxide (NO); Dose 10 (μM as printed)): 2.62 ± 0.62 µM
NO in serum (nitric oxide (NO); Dose 100 (μM as printed)): 3.29 ± 0.88 µM
inhibition of IL-4 production (in words) (IL-4; listed as Bergenin (1)): showed inhibition; also recorded: most potent
inhibition of IL-1β production (in words) (IL-1β; listed as Bergenin (1)): showed inhibition; also recorded: most potent

CCN(CC)Cc1c(O)c(OC)c(O)c2c1C(=O)OC1C2OC(CO)C(O)C1O (centres unmarked) [Compound 2, 7-((Diethylamino)methyl)-2,3,4,4a-tetrahydro-3,4,8,10-tetrahydroxy-2-(hydroxymethyl)-9-methoxypyrano[3,2-c]isochromen-6(10bH)-one]
inhibition of T-cell proliferation (in words) (T-cell): most potent
IC50 (T-cell): < 100 nM
IL-6 in cell supernatant of macrophages (IL-6 [1]; Dose 10 (μM as printed)): 41.4 ± 8.9 ng/mL
IL-6 in cell supernatant of macrophages (IL-6 [1]; Dose 100 (μM as printed)): 17.3 ± 3.0 ng/mL
TNF-α in serum (TNF-α [2]; Dose 10 (μM as printed)): 585 ± 192 pg/mL
TNF-α in serum (TNF-α [2]; Dose 100 (μM as printed)): 388 ± 115 pg/mL
activity against TNF-α in in-vivo LPS model compared with bergenin (1) (TNF-α [2]): better activity than bergenin (1)
IC50 (IL-6 [3]): < 100 nM
inhibition of IL-6 production (in words) (IL-6 [3]): most potent
IC50 (TNF-α [4]): < 100 nM
inhibition of TNF-α production (in words) (TNF-α [4]): most potent
IL-6 in serum (IL-6 [5]; Dose 10 (μM as printed)): 102 ± 40 ng/mL
IL-6 in serum (IL-6 [5]; Dose 100 (μM as printed)): 275 ± 65 ng/mL
TNF-α in cell supernatant of macrophages (TNF-α [6]; Dose 10 (μM as printed)): 102 ± 12^ pg/ml
TNF-α in cell supernatant of macrophages (TNF-α [6]; Dose 100 (μM as printed)): 89 ± 6.4 pg/mL
NO in serum (nitric oxide (NO); Dose 10 (μM as printed)): 5.0 ± 0.80 µM
NO in serum (nitric oxide (NO); Dose 100 (μM as printed)): 3.0 ± 0.73 µM
inhibition of IL-4 production (in words) (IL-4): most potent
inhibition of IL-1β production (in words) (IL-1β): most potent

COc1c(O)c(CN2CCN(C)CC2)c2c(c1O)C1OC(CO)C(O)C(O)C1OC2=O (centres unmarked) [Compound 3, 2,3,4,4a-Tetrahydro-3,4,8,10-tetrahydroxy-2-(hydroxymethyl)-9-methoxy-7-((4-methylpiperazin-1-yl)methyl)pyrano[3,2-c]isochromen-6(10bH)-one]
inhibition of T-cell proliferation (in words) (T-cell): most potent
IC50 (T-cell): 6100 nM
IL-6 in cell supernatant of macrophages (IL-6 [1]; Dose 10 (μM as printed)): 12.1 ± 2.81 ng/mL
IL-6 in cell supernatant of macrophages (IL-6 [1]; Dose 100 (μM as printed)): 21.1 ± 3.2 ng/mL
TNF-α in serum (TNF-α [2]; Dose 10 (μM as printed)): 672 ± 221 pg/mL
TNF-α in serum (TNF-α [2]; Dose 100 (μM as printed)): 398 ± 62 pg/mL
activity against TNF-α in in-vivo LPS model compared with bergenin (1) (TNF-α [2]): better activity than bergenin (1)
IC50 (IL-6 [3]): < 100 nM
inhibition of IL-6 production (in words) (IL-6 [3]): most potent
IC50 (TNF-α [4]): < 100 nM
inhibition of TNF-α production (in words) (TNF-α [4]): most potent
IL-6 in serum (IL-6 [5]; Dose 10 (μM as printed)): 282 ± 98 ng/mL
IL-6 in serum (IL-6 [5]; Dose 100 (μM as printed)): 58 ± 12 ng/mL
TNF-α in cell supernatant of macrophages (TNF-α [6]; Dose 10 (μM as printed)): 78 ± 4.9 pg/mL
TNF-α in cell supernatant of macrophages (TNF-α [6]; Dose 100 (μM as printed)): 84 ± 6.7 pg/mL
NO in serum (nitric oxide (NO); Dose 10 (μM as printed)): 2.87 ± 0.73 µM
NO in serum (nitric oxide (NO); Dose 100 (μM as printed)): 1.24 ± 0.25 µM
inhibition of IL-4 production (in words) (IL-4): most potent
inhibition of IL-1β production (in words) (IL-1β): most potent

— US9777014B2, “Tetrahydro-2H-pyrano[3,2-C]isochromene-6-ones and analogs for the treatment of inflammatory disorders” (Council of Scientific & Industrial Research, priority 2013, dated 2017)
